Results on 5 compounds are retold here after patent publication US6653322B1, “Therapeutic combinations of RAR antagonists and RXR agonists and use thereof” (Bristol-Myers Squibb Company, priority 1996, dated 2003).

One test deals with T1, PML-RARα (Homo sapiens, UniProt P10276+P29590).
T1 construct: induced the association of endogenous PMUPML-RARα with nuclear bodies; endogenous in cells; host or cells: NB4 human acute promyelocytic leukemia cells
T1 sequence (P10276 61-462 limits assumed): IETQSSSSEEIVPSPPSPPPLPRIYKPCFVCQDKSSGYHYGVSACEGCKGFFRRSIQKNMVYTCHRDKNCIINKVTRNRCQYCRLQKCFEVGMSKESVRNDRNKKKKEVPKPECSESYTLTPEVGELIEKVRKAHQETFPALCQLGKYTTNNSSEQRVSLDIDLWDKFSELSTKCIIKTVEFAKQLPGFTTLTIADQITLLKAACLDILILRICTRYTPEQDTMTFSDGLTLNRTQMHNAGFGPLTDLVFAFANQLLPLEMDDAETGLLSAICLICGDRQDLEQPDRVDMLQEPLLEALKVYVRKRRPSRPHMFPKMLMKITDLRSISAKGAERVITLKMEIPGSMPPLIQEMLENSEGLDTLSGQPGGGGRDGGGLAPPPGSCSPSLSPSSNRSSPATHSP
Description: Anti-PML immunofluorescence: association of PML/PML-RARα with nuclear bodies in NB4 cells. The format is cell-based. To be noted: with SR11237. The method, then: Following fixation, cells were permeabilized with 0.1% Triton X-100 in PBS (buffer A). After washing in PBS, the cells were blocked in 0.5 mg/ml normal goat IgG (Jackson Laboratories, Bar Harbor, Me.) in PBS for 30 minutes at room temperature, and thereafter incubated overnight at 4° C. with a polyclonal anti-PML antibody (the kind gift of Dr. Anne Dejean), diluted in buffer A containing 0.5 mg/ml normal goat IgG (buffer B) at 4° C. After three washes in buffer A, the cells were incubated with donkey anti-rabbit IgG (H+L) conjugated with cyanine 3 (Jackson Laboratories, Bar Harbor, Me.) in buffer B for 1 hour at room temperature. Following washes in PBS the mounted samples were examined with a confocal laser microscope (TCS, Leica) equipped with cyanine optics for PML localization.

A further test has as its system AP1 activity. The following applies: via all three RARs; Chen et al. 1995; cited from earlier work.
Test [1] relates to NB4 cells. Description: NB4 cell differentiation (TPA-induced nitroblue tetrazolium reduction). The format is cell-based, human. On the procedure:
NB4 cells were obtained from ATCC and were grown in RPMI-1640 (plus 2 mM L-glutamine) containing 100 […] penicillin and streptomycin and 8% fetal bovine serum (FBS). Cells were treated for four days with retinoid(s) or ethanol vehicle, then washed and resuspended at a density of 5×10^5 cells/ml. 50 microliter aliquots of this suspension were spread over poly-L-lysine coated slides (Sigma, St. Louis, Mo.). After washing with PBS (137 mM NaCl, 2.7 mM KCl, 4.3 mM Na2HPO4, 1.4 mM KH2PO4), the cells were fixed for 10 minutes in 2% formalin (37% formaldehyde in 15% methanol in water) at room temperature.
Following fixation, cells were washed three times in PBS and were scored by TPA (12-O-tetradecanoyl-phorbol-13-acetate, 200 ng/ml)-induced nitroblue tetrazolium reduction (Sigma Fast BCIP/NBT) for 30 minutes at 37° C. Samples were examined for cellular and nuclear morphology with an optical microscope (Diavert Leitz); the percentage of differentiated cells was determined by counting at least 300 cells for each treatment.

In another test the test system is RARβ2 and RARγ mRNA. Description: RARβ/RARγ expression by reverse transcriptase PCR in NB4 cells. The format is cell-based, human. The following applies: for Expression of RARβ2 (and RARγ) by RT-PCR: retinoid alone. On the procedure: Total RNA was isolated and reverse transcribed in a buffer solution comprising 10 mM Tris-HCl (pH 8.3), 50 mM KCl, 2 mM MgCl2 and 1 mM of all four deoxynucleoside triphosphates, using 25 units of AMV reverse transcriptase in the presence of 50 units of RNAsin for 60 minutes at 42° C. For reverse transcription, 25 picomoles per reaction of the common antisense primer 5′-[…]-3′ (SEQ ID NO:6) for either RARα, β or γ was used. For each PCR reaction the common antisense primer, one-fourth of the reverse transcribed product and the following specific sense primers were used: […]
The amplification was carried out in a final volume of 0.1 ml, using Taq DNA polymerase (Perkin Elmer Cetus) according the manufacturer's instructions. Eighteen PCR cycles (30 seconds at 94° C., 30 seconds at 65° C. and 30 seconds at 72° C.) were performed, and a 10 microliter aliquot of each reaction was analyzed by electrophoresis on a 6% native polyacrylamide gel, which was then stained with ethidium bromide and examined by ultraviolet illumination.

Test [2] has as its system NB4 cells. Description: NB4 cell apoptosis (flow cytometry, DNA fragmentation). Type of test: cell-based, human. The following applies: for Induction of NB4 cell apoptosis: retinoid alone. The method, then:
The cell cycle distribution and presence of “sub-2N” cells and particles in control and retinoid-treated NB4 cells were determined by cell cycle flow cytometry based on DNA content, using an EPICS Profile II cell sorter (Coulter Electronics, Inc., Hialeah, Fla.) equipped with a 15 watt argon laser tuned to an excitation wavelength of 488 nm and filter sets providing an emission wavelength of 575 nm. Cultures of untreated or retinoid-treated cells were centrifuged (250×g) and fixed in 70% ethanol and stored at −20° C. Following two washes in PBS, the cells and subcellular particles were incubated in 1 mg/ml RNase A (59 Kunitz units/mg, Sigma Chemical Co., St. Louis, Mo.) for 30 minutes at 37° C., centrifuged and resuspended in PBS at a concentration of approximately 10^6 cells per ml. Ethidium bromide was added to a final concentration of 50 micrograms/ml immediately prior to sample analysis.
The induction of apoptosis by retinoids was also determined by the appearance of a “ladder” of fragmented DNA as previously described (Nagy, L., et al., Mol. Cell. Biol. 15:3540-3551 (1995)). Cells were refed with fresh media and retinoids every 2 days, and the cell density was maintained well below saturation in order to prevent cell death due to nutrient and/or mitogen depletion. Five micrograms per lane of DNA was electrophoresed in a 1.5% agarose gel, followed by staining with ethidium bromide, and DNA bands were visualized and photographed via ultraviolet illumination of ethidium bromide fluorescence.
Background: In flow cytometry, cells or beads pass a laser one at a time.

For a further test, the target named is T2, GAL-RARβ (Homo sapiens, UniProt P10826).
T2 construct: expressed in transfected cells; host or cells: HeLa
T2 sequence (P10826 183-417 limits assumed): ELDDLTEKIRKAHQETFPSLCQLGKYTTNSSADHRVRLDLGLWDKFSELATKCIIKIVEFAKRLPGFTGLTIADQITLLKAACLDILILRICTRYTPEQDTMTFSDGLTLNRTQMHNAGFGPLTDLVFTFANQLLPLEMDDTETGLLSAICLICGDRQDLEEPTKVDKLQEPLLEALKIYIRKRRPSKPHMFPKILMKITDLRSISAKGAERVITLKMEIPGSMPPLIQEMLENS
Description: HeLa reporter cells, agonistic/antagonistic activity of RAR-specific ligands. Type of test: cell-based. The following applies: FIG. 1. The method, then: (§1) HeLa reporter cell lines containing a retinoid-inducible luciferase reporter gene (17 m)5-globin-Luc in the stably transfected reporter constructs GAL-RARα, GAL-RARβ or GAL-RARγ were constructed and used as described previously (Chen, J. Y., et al., EMBO J. 14:1187-1197 (1995)). Cells were treated with RAR-specific ligands, and luciferase-induced bioluminescence was monitored in vivo using a single-photon-counting camera (Hamamatsu) by seeding equal amounts of cells in 24-well tissue culture plates and incubating them with increasing concentrations of retinoids alone, or in the presence of T-RA to determine the antagonistic potential of the ligands.

In the next test the target is T3, GAL-RARγ (Homo sapiens, UniProt P13631).
T3 construct: expressed in transfected cells; host or cells: HeLa
T3 sequence (P13631 185-419 limits assumed): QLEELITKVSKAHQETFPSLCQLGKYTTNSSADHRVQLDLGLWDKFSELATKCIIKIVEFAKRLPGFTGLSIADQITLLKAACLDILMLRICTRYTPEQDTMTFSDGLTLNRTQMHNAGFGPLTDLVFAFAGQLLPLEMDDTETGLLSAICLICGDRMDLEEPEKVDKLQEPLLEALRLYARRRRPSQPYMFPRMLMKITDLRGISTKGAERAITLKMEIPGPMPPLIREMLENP
The description is as above. Type of test: cell-based. The following applies: FIG. 1. The method, then:
as §1

Another test concerns the target T4, GAL-RARα (Homo sapiens, UniProt P10276).
T4 construct: expressed in transfected cells; host or cells: HeLa
T4 sequence (P10276 183-417 limits assumed): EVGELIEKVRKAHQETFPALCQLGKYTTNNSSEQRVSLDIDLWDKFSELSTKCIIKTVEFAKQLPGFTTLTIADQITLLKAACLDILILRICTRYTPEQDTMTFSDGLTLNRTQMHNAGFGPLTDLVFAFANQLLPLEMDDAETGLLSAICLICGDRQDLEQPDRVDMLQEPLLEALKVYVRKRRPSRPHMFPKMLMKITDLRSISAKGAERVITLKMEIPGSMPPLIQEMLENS
The test is described as above. Type of test: cell-based. To be noted: FIG. 1, FIG. 2. The method, then:
as §1

Setting [3] is: in presence of RXR agonist SR11237.
[4] abbreviates: retinoid alone at 1000 (concentration unit not given), 4 days.
[5] abbreviates: retinoid at 1 +100 nM SR11237, 4 days.
The mark [6] stands for this setting: retinoid at 10 +100 nM SR11237, 4 days.
Setting [7] is: retinoid at 100 +100 nM SR11237, 4 days.
The mark [8] stands for this setting: retinoid alone at 1 (concentration unit not given), 4 days.
Setting [9] is: retinoid alone at 10 (concentration unit not given), 4 days.
Where [10] appears, read: retinoid alone at 100 (concentration unit not given), 4 days.

For the compound `CC1(C)CC=C(c2ccccc2)c2cc(/C=C/c3ccc(C(=O)O)cc3)ccc21` [Compound A], the “Association of PML-RARα with nuclear bodies” value on PML-RARα is “indistinguishable from that seen in presence of RARα agonists”. Further, the “Repression of AP1 activity” value in the test on AP1 activity is on record as “efficiently repressing AP1 activity via all three RARs”. Besides, the “Induction of NB4 cell differentiation” value is “induced differentiation with higher efficiency than T-RA or 9C-RA” with NB4 cells [1] (setting [3]) and “ineffective on their own” in the test with NB4 cells [1] (retinoid on its own). Also, the “Percentage of NB4 cells differentiated” value in the test with NB4 cells [1] (setting [4]) is reported as <1%; with NB4 cells [1] (setting [5]), <1%; in the test on NB4 cells [1] (setting [6]), 65%; in the test on NB4 cells [1] (setting [7]) it was 78%. Also, in the test with RARβ2 and RARγ mRNA, the “Expression of RARβ2 (and RARγ) by RT-PCR” value was “no induction”. Also, the “RARβ and RARγ mRNA production” value with RARβ2 and RARγ mRNA (with SR11237) was “efficient accumulation of RARβ and RARγ mRNA”. Further, in the test with NB4 cells [2] (in combination with SR11237), the “Antiproliferative and apoptotic effect on NB4 cells” value is “strong antiproliferative and apoptotic effect”. For the same compound, in the test with NB4 cells [2], the “Induction of NB4 cell apoptosis” value is “inefficient alone”.

`CC1=C(/C=C/C(C)=C/C=C/C(C)=C/C(=O)O)C(C)(C)CCC1` [T-RA, all-trans retinoic acid]: the “Percentage of NB4 cells differentiated” value with NB4 cells [1] (setting [8]) is <1%; in the test with NB4 cells [1] (setting [9]), <1%; in the test with NB4 cells [1] (setting [10]) it was 81%; in the test on NB4 cells [1] (setting [4]) it was 80%. Also, the “Induction of NB4 cell apoptosis” value with NB4 cells [2] was “extensive apoptosis”.

On to `CC1=C(/C=C/C(C)=C\C=C\C(C)=C\C(=O)O)C(C)(C)CCC1` [Compound 9C-RA, 9-cis (9C-RA) retinoic acid], for which the “Percentage of NB4 cells differentiated” value in the test on NB4 cells [1] (setting [8]) is <1%; in the test with NB4 cells [1] (setting [9]) it was 4%; with NB4 cells [1] (setting [10]), 65%; with NB4 cells [1] (setting [4]) it was 70%.

`CC1(C)CCC(C)(C)c2cc(NC(=O)c3ccc(C(=O)O)cc3)ccc21` [Am80]: the “Induction of NB4 cell differentiation” value in the test with NB4 cells [1] (setting [3]) is recorded as “significantly more efficient at inducing differentiation at low concentrations”; with NB4 cells [1] (retinoid on its own), “efficiently induced differentiation”. Moreover, the “Percentage of NB4 cells differentiated” value with NB4 cells [1] (retinoid alone at 0.1 (concentration unit not given), 4 days) is <1%; in the test with NB4 cells [1] (retinoid alone at 0.3 (concentration unit not given), 4 days), <1%; in the test on NB4 cells [1] (retinoid alone at 0.5 (concentration unit not given), 4 days), <1%; in the test on NB4 cells [1] (setting [8]), 80%; in the test on NB4 cells [1] (setting [9]) it was 81%; in the test with NB4 cells [1] (setting [10]), 80%. The “Percentage of NB4 cells differentiated” value in the test with NB4 cells [1] (retinoid at 0.1 +100 nM SR11237, 4 days) is on record as <1%; with NB4 cells [1] (retinoid at 0.3 +100 nM SR11237, 4 days) it was 20%; in the test on NB4 cells [1] (retinoid at 0.5 +100 nM SR11237, 4 days), 40%; with NB4 cells [1] (setting [5]), 80%. In the test on RARβ2 and RARγ mRNA, the “Expression of RARβ2 (and RARγ) by RT-PCR” value is “induced expression of RARβ2 (and RARγ) was confirmed”.

For `CC1(C)CC=C(c2cnc3ccccc3c2)c2cc(C(=O)Nc3ccc(C(=O)O)cc3)ccc21` [Compound B], the “Binding to RARβ” value on GAL-RARβ is on record as “does not bind”. Moreover, at GAL-RARγ, the “Binding to RARγ” value is recorded as “does not bind”. For the same compound, the “Binding to RARα” value at GAL-RARα is recorded as “lower binding affinity for RARα”. In addition, the “Block of differentiation induced by 1 nM Am80” value in the test on NB4 cells [1] (excess of the compound) is reported as “completely blocked”. The figures for the “Induction of NB4 cell differentiation” value with NB4 cells [1] (setting [3]) and with NB4 cells [1] (retinoid on its own) were “induced differentiation” and “ineffective on their own”, respectively. The “Percentage of NB4 cells differentiated” value with NB4 cells [1] (setting [4]) is on record as <1%; in the test with NB4 cells [1] (setting [5]), <1%; with NB4 cells [1] (setting [6]), 3%; in the test with NB4 cells [1] (setting [7]) it was 5%; in the test on NB4 cells [1] (retinoid at 1000 +100 nM SR11237, 4 days), 10%.
